Test results published in patent US20030207843A1, “Treatment of drug-resistant human immunodeficiency virus infection” (priority 1999, published 2003).
Read-outs that look alike come from different tables or passages of the source.

Key:
HIV-1LAI 4XAZT/Q161L = assay: p24 reduction assay in MT-2 cells, 4XAZT/Q161L; type: cell-based; conditions: Table 7; for EC50: 4XAZTQ161L; for Fold-resistance: 4XAZTQ161L relative to wild type virus
Method: (§1) Cells. MT-2 cells (AIDS Research and Reference Reagent Program, National Institute of Allergy and Infectious Diseases, National Institutes of Health) were maintained in RPMI 1640 supplemented with 10% fetal bovine serum (FBS; JRH Biosciences, Lenexa, Kans.), 10 mM HEPES buffer, 50 IU/ml penicillin and 50 μg/ml streptomycin.
(§2) Antiviral Susceptibility Assays. The antiviral activity of each compound was determined by inoculating MT-2 cells with HIV-1LAI at a multiplicity of infection (MOI) of 0.01 TCID50/cell, followed by incubation in the presence of three-fold serial drug dilutions (3 wells per dilution) (see Mellors, et. al., Antimicrob. Agents Chemother. 39:1087-1092). Five or seven days after infection, culture supernatants were harvested, lysed with 0.5% triton-X 100 and assayed for p24 antigen concentration using a commercial ELISA assay (DuPont, NEN Products, Wilmington, Del.). The antiviral activity of the compounds is expressed as the IC50, which is the concentration required to inhibit 50% of p24 antigen production. The fold-resistance of a test virus is calculated by dividing the IC50 of the test virus by the IC50 of the HIV-1LAI control virus.
(§3) Generation of Mutant Recombinant HIV-1. HIV-1 containing the desired mutations were generated by oligonucleotide directed mutagenesis (Altered Sites II, Promega) as previously described (Mellors, et. al., Molecular Pharm. 41:446-451). After mutagenesis, mutant RT was subcloned into the pxxHIV-1LAI cloning vector using the silent XmaI and XbaI restriction sites located at the 5′ and 3′ ends of RT. Clones were DNA sequenced to verify the presence of the desired mutation(s) and electroporated into MT-2 cells as described above to generate infectious mutant recombinant HIV-1.
(§4) Mutant RT was generated via oligonucleotide-directed mutagenesis and ligated into the pXXHIV-1LAI cloning vector. Cloning was facilitated by the presence of two silent restriction sites at the 5′ and 3′ ends (Xma1 and Xba1, respectively) of pXXHIV-1LAI RT. Infectious mutant recombinant HIV-1 was generated by electroporating MT-2 cells with mutated pXXHIV-1LAI clones. The presence of the desired mutations was verified by DNA sequencing.
(§5) Invention compounds were also evaluated against a panel of HIV-1LAI derived recombinants resistant to PFA and the PFA invention compounds, as shown in Table 7.

HIV-1LAI 4XAZT/W88S = assay: p24 reduction assay in MT-2 cells, 4XAZT/W88S; type: cell-based; conditions: Table 7; for EC50: 4XAZT/W88S; for Fold-resistance: 4XAZT/W88S relative to wild type virus
Method: as §1, §2, §3, §4, §5

HIV-1LAI M184V/T215Y = assay: p24 reduction assay in MT-2 cells, M184V/T215Y; type: cell-based; conditions: Table 1, MOI 0.01
Method: as §1, §2, §3
Mutant RT was generated via oligonucleotide-directed mutagenesis and ligated into the pXXHIV-1LAI cloning vector. Cloning was facilitated by the presence of two silent restriction sites at the 5′ and 3′ ends (Xma1 and Xba1, respectively) of pXXHIV-1LAI RT. […]

[1] = system: K (multinucleoside resistant recombinant virus V75I, F77L, F116Y, Q151M); assay: p24 reduction assay in MT-2 cells, virus K; type: cell-based, HIV-1; conditions: Table 4; for Fold-resistance: virus K relative to wild type virus; for EC50: virus K, mean ± SD
Method: as §1, §2
(§6) The MNR panel consisted of a virus containing the mutations V75I, F77L, F116Y and […], a virus containing the T69S[SA insert], and a clinical isolate carrying the classic MNR genotype (62V/751/77L/116Y/151M). Each of the PFA invention compounds retained potency against these viruses with fold resistance values of <2.

MT-2 cells = assay: In vitro selectivity index in MT-2 cells; type: cell-based; conditions: (50% cytotoxic dose/50% effective dose)×100
Method: The in vitro selectivity indexes for PFA and lipid analogs of PFA were determined in MT-2 cells and are as follows:
Note that the selectivity index ((50% cytotoxic dose/50% effective dose)×100) is much greater for the lipid analogs of PFA than for PFA itself. Since the lipid analogs have a much greater oral absorption than PFA, they may be given orally for controlling replication of drug-resistant HIV either alone or in combination with one or more antiviral agents. AZT is especially preferred in combination with the lipid analogs of PFA.

[2] = system: HIV-1LAI 4XAZT/Q161L/H208Y; assay: p24 reduction assay in MT-2 cells, 4XAZT/Q161L/H208Y; type: cell-based; conditions: Table 7; for EC50: 4XAZTQ161L/H208Y; for Fold-resistance: 4XAZTQ161L/H208Y relative to wild type virus
Method: as §1, §2, §3, §4, §5

HIV-1LAI 4XAZT/K103N = assay: p24 reduction assay in MT-2 cells, 4XAZT/K103N; type: cell-based; conditions: for Fold-resistance: 4XAZT/K103N relative to wild type virus
Method: as §1, §2, §3, §4
The multi-drug resistant HIV-1 strains, 11163p1 and 11588p1, are human clinical isolates having the RT mutations indicated. HIV-1 strains treated with the lipid analogs of the present invention include wild type, e.g., xxLAI, and the like, single mutation, e.g., xxLAI MI 84V (resistant to 3TC), xxLAI L74V (resistant to ddI and ddC), xxLAI K65R (resistant to ddI, ddC, DAPD, DXG, tenofovir, and adefovir), xxLAI T215Y (resistant to AZT), and the like, double mutations, e.g., xxLAI M41 L/T215Y (resistant to AZT), xxLAI MI 84V/T215Y (resistant to 3TC and AZT), and the like, and multiple mutations, e.g., xxLAI 4XAZT ((D67N, K70R, T215Y, K219Q) resistant to AZT)), xxLAI 4XAZT/M184V ((D67N, K70R, M 184V, T215Y, K219Q) resistant to AZT and 3TC), xxLAI M5456-12 (AZT+NNRTI resistant: D67N, K70R, K103N, T215Y), xxLAI G2-3g (AZT/3TC co-resistant: M41L, D67N, M184V, H208Y, L210W, R211K, L214F, T215Y, 1293V, E297A), 11163 (multinucleoside resistant virsus: M41L, A62V, V751, F77L, K103N, F116Y, Q151M, Y181C, M184V), 11588 (multinucleoside resistant virsus: A62V, K65R, K70R, V751, F77L, F116Y, Q151M, M184V, K219Q), and the like.

[3] = system: 11163p3 (multinucleoside resistant clinical isolate); assay: p24 reduction assay in MT-2 cells, 11163p3; type: cell-based, HIV-1; conditions: Table 4; for EC50: 11163p3, mean ± SD; for Fold-resistance: 11163p3 relative to wild type virus
Method: as §1, §2, §6

[4] = Table 1, AZT/K103N, MOI 0.01, read-out: EC50
[5] = Table 5, 4XAZT/K103N, mean ± SD, read-out: EC50
[6] = Human immunodeficiency virus 1, MT2

## CCCCCCCCCCCCCCCCCCOC[C@@H](O)COP(=O)(O)C(=O)O [B-PFA, 1-O-octadecyl-sn-glycero-3-PFA]
HIV-1LAI 4XAZT/Q161L
  EC50: 6640 nM
  Fold-resistance: 2.10 (2.5)
HIV-1LAI 4XAZT/W88S
  EC50: 4090 nM
  Fold-resistance: 1.84 (1.6)
HIV-1LAI M184V/T215Y
  EC50: 1490 nM
[1]
  Fold-resistance: (1.6)
  EC50: 4200 nM
MT-2 cells
  Selectivity Index: 781
[2]
  EC50: 6200 nM
  Fold-resistance: 0.85 (2.4)
HIV-1LAI 4XAZT/K103N; [4]
  EC50: 2720 nM
HIV-1LAI 4XAZT/K103N; Table 5
  Fold-resistance: (2.2)
HIV-1LAI 4XAZT/K103N; [5]
  EC50: 3870 ± 2360 nM
[3]
  EC50: 1100 ± 530 nM
  Fold-resistance: (0.6)

## O=C(O)P(=O)(O)O [PFA, phosphonoformate, reference compound]
HIV-1LAI 4XAZT/Q161L; [6]
  EC50: 39900 nM
HIV-1LAI 4XAZT/Q161L
  Fold-resistance: 9.40 (2.3)
HIV-1LAI 4XAZT/W88S; [6]
  EC50: 18400 nM
HIV-1LAI 4XAZT/W88S
  Fold-resistance: 10.40 (1.0)
[1]; [6]
  EC50: 21400 ± 15600 nM
[1]
  Fold-resistance: (0.7)
MT-2 cells
  Selectivity Index: 137
[2]; [6]
  EC50: 43100 nM
[2]
  Fold-resistance: 17.50 (2.4)
HIV-1LAI 4XAZT/K103N; Human immunodeficiency virus 1, MT2, Table 1, AZT/K103N, MOI 0.01
  EC50: 18600 nM
HIV-1LAI 4XAZT/K103N; Human immunodeficiency virus 1, MT2, Table 5, 4XAZT/K103N, mean ± SD, read-out: EC50
  EC50: 19200 ± 8850 nM
HIV-1LAI 4XAZT/K103N; Table 5
  Fold-resistance: (1.1)
[3]; [6]
  EC50: 15500 ± 5040 nM
[3]
  Fold-resistance: (0.9)

## CCCCCCCCCCCCCCCCCCOC[C@H](COP(=O)(O)C(=O)O)OCC [EB-PFA, 1-O-octadecyl-2-O-ethyl-sn-glycero-3-PFA]
HIV-1LAI 4XAZT/Q161L
  EC50: 1180 nM
HIV-1LAI 4XAZT/W88S
  EC50: 1510 nM
  Fold-resistance: 0.21 (1.9)
HIV-1LAI M184V/T215Y
  EC50: 480 nM
[1]
  EC50: 900 ± 700 nM
MT-2 cells
  Selectivity Index: 1905
[2]
  EC50: 2020 nM
  Fold-resistance: 0.54 (2.6)
HIV-1LAI 4XAZT/K103N; [4]
  EC50: 800 nM
HIV-1LAI 4XAZT/K103N; Table 5
  Fold-resistance: (1.4)
HIV-1LAI 4XAZT/K103N; [5]
  EC50: 880 ± 140 nM
[3]
  EC50: 500 ± 60 nM
  Fold-resistance: (0.8)

## CCCCCCCCCCCCCCCCCCOC[C@H](COP(=O)(O)C(=O)O)OC [MB-PFA, 1-O-octadecyl-2-O-methyl-sn-glycero-3-PFA]
HIV-1LAI 4XAZT/Q161L
  EC50: 1870 nM
  Fold-resistance: 0.33 (2.2)
HIV-1LAI 4XAZT/W88S
  EC50: 1540 nM
  Fold-resistance: 0.81 (1.8)
HIV-1LAI M184V/T215Y
  EC50: 540 nM
[1]
  Fold-resistance: (0.87)
  EC50: 2000 ± 600 nM
MT-2 cells
  Selectivity Index: 953
[2]
  Fold-resistance: 0.14 (2.7)
HIV-1LAI 4XAZT/K103N; Table 5
  Fold-resistance: (1.2)
HIV-1LAI 4XAZT/K103N; [5]
  EC50: 600 ± 380 nM
[3]
  EC50: 400 ± 280 nM
  Fold-resistance: (0.9)
